The values below come from publication PMC9926234, “Iterative computational design and crystallographic screening identifies potent inhibitors targeting the Nsp3 macrodomain of SARS-CoV-2” (Proceedings of the National Academy of Sciences of the …, 2023).

Read-outs that look alike come from different tables or passages of the source.

Experiment [1] addresses T1, SARS-CoV-2 NSP3 Mac1 (Severe acute respiratory syndrome coronavirus 2, UniProt P0DTD1). Nature of the experiment: biochemical. The experiment is classed as binding. Particulars: for IC50: read-out: IC50; for Ki: Ki estimation from HTRF-derived IC50, Cheng-Prusoff, peptide 400nM, Kd 2.68µM, read-out: Ki***.
Experiment [2] concerns the target T1, SARS-CoV-2 NSP3 Mac1. The experiment is classed as binding. Particulars: for 1-BDC (PanDDA): PanDDA event map, 1 minus background density correction; for 1-BDC (PanDDA) / Refined occupancy: crystal soaking of Mac1; for Refined occupancy: ligand occupancy after refinement (phenix.refine); for HIT*: true hit = binding in crystallographic soaking or the HTRF-based binding assay.

The mark [3] stands for this setting: HTRF ADPr-peptide displacement from SARS-CoV-2 Mac1.
The mark [4] stands for this setting: PanDDA 1-BDC of the event, compound stock 100 mM, Echo dispense volume 40 nl.
Setting [5] is: crystal soak, compound stock 100 mM, Echo dispense volume 40 nl.
Where [6] appears, read: ligand modeled in structure, compound stock 100 mM, Echo dispense volume 40 nl.
The mark [7] stands for this setting: PanDDA event map 1-BDC, crystal soak, Compound_concentration 100 mM, PanDDA run dmso_34 or nohits_35 per dataset.
[8] abbreviates: crystal soak, Compound_concentration 100 mM, Echo dispense 40 nl, PanDDA run dmso_34 or nohits_35 per dataset.

In general, IC50 refers to the concentration needed to halve the response being measured. The Ki is the equilibrium dissociation constant of an inhibitor or competing ligand from its target. Regarding `O=C(O)C1CN(c2ncnc3[nH]c4cc(F)ccc4c23)CCC12CCC2` (centres unmarked) [LL123_0029], the concentration for half-maximal inhibition (IC50) at SARS-CoV-2 NSP3 Mac1 [1] (setting [3]) amounted to 16 µM. The half-maximal inhibitory concentration (IC50) on SARS-CoV-2 NSP3 Mac1 [1] (HTRF) turned out to be 15.9 µM. At SARS-CoV-2 NSP3 Mac1 [1], the Ki is 13.8 µM. The same molecule showed a 1-BDC at SARS-CoV-2 NSP3 Mac1 [2] (PanDDA 1-BDC of the event, compound stock 100 mM, Echo dispense volume 80 nl) of 0.11. Besides, at SARS-CoV-2 NSP3 Mac1 [2], the “1-BDC (PanDDA)” value is 0.11, the Refined occupancy was determined as 22 and the “HIT*” value is recorded as “Y”. At SARS-CoV-2 NSP3 Mac1 [2] (crystal soak, compound stock 100 mM, Echo dispense volume 80 nl), the “PanDDA hit?” value was “TRUE”. In addition, the “Modeled?” value on SARS-CoV-2 NSP3 Mac1 [2] (ligand modeled in structure, compound stock 100 mM, Echo dispense volume 80 nl) is given as “TRUE”.

On to `CS(=O)(=O)NC(=O)C1CN(c2ncnc3[nH]c4cc(F)ccc4c23)CCO1` (centres unmarked) [LL114_0019], for which the IC50 at SARS-CoV-2 NSP3 Mac1 [1] (setting [3]) is 12 µM. Moreover, the IC50 on SARS-CoV-2 NSP3 Mac1 [1] (HTRF) was 12.3 µM. Besides, the inhibition constant Ki at SARS-CoV-2 NSP3 Mac1 [1] is 10.7 µM. The molecule also had a 1-BDC on SARS-CoV-2 NSP3 Mac1 [2] (setting [4]) of 0.1. On SARS-CoV-2 NSP3 Mac1 [2], the “1-BDC (PanDDA)” value is on record as 0.1, the Refined occupancy is listed as 20 and the “HIT*” value is reported as “Y”. Moreover, the “PanDDA hit?” value on SARS-CoV-2 NSP3 Mac1 [2] (setting [5]) is “TRUE”. The “Modeled?” value at SARS-CoV-2 NSP3 Mac1 [2] (setting [6]) was “TRUE”.

Take `Nc1cc(NC(=O)NC2CC2)ccc1C(=O)NC1c2cccc(O)c2CC1C(=O)O` (centres unmarked) [Z8539_0059]: the half-inhibitory concentration (IC50) at SARS-CoV-2 NSP3 Mac1 [1] (setting [3]) stood at 0.9 µM. Besides, at SARS-CoV-2 NSP3 Mac1 [1] (HTRF), the half-inhibitory concentration (IC50) stood at 0.8 µM. In addition, on SARS-CoV-2 NSP3 Mac1 [1], the inhibition constant Ki was 0.7 µM. The molecule further yielded a 1-BDC at SARS-CoV-2 NSP3 Mac1 [2] (setting [7]) of 0.25. At SARS-CoV-2 NSP3 Mac1 [2], the “1-BDC (PanDDA)” value came to 0.25, the Refined occupancy is given as 50 and the “HIT*” value is recorded as “Y”. The “PanDDA hit?” value on SARS-CoV-2 NSP3 Mac1 [2] (setting [8]) is “TRUE”. Also, at SARS-CoV-2 NSP3 Mac1 [2] (ligand modeled in this dataset, crystal soak, Compound_concentration 100 mM), the “Modeled?” value is reported as “TRUE”.

Turning to `CC1(C)CN(c2ncnc3[nH]c4ccccc4c23)CC(CC(=O)O)O1` (centres unmarked) [Z2215], on SARS-CoV-2 NSP3 Mac1 [1] (HTRF), the concentration for half-maximal inhibition (IC50) came to 116 µM. The Ki at SARS-CoV-2 NSP3 Mac1 [1] is 101 µM. In addition, at SARS-CoV-2 NSP3 Mac1 [2], the “HIT*” value was “Y”.

On to `O=C(O)CC1CN(c2ncnc3[nH]c4ccccc4c23)CC(C(F)(F)F)O1` (centres unmarked) [Z1229], for which the concentration for half-maximal inhibition (IC50) at SARS-CoV-2 NSP3 Mac1 [1] (HTRF) was 119 µM. On SARS-CoV-2 NSP3 Mac1 [1], the Ki is 104 µM. For the same molecule, the “HIT*” value on SARS-CoV-2 NSP3 Mac1 [2] was “Y”.

As for `O=C(O)C(F)(F)F.O=C(O)C1CN(c2ncnc3[nH]c4ccccc4c23)CC12CCC2` (centres unmarked) [Z4706], the IC50 at SARS-CoV-2 NSP3 Mac1 [1] (HTRF) was determined as 15.4 µM. Besides, the inhibitory constant (Ki) at SARS-CoV-2 NSP3 Mac1 [1] is 13.4 µM. Also, on SARS-CoV-2 NSP3 Mac1 [2], the “HIT*” value is on record as “Y”.

Regarding `O=C(O)CC1CN(c2ncnc3[nH]c4ccccc4c23)CCO1` (centres unmarked) [Z9596], the half-inhibitory concentration (IC50) at SARS-CoV-2 NSP3 Mac1 [1] (HTRF) worked out at 37.1 µM. The Ki on SARS-CoV-2 NSP3 Mac1 [1] was 32.3 µM. Further, on SARS-CoV-2 NSP3 Mac1 [2], the “HIT*” value is given as “Y”.

Regarding `O=C(O)C[C@@H]1CN(c2ncnc3[nH]c4cc(F)ccc4c23)C[C@H](CO)O1` [LL114_0001], the IC50 at SARS-CoV-2 NSP3 Mac1 [1] (setting [3]) was 8 µM; at SARS-CoV-2 NSP3 Mac1 [1] (HTRF), 8.2 µM. In addition, the Ki on SARS-CoV-2 NSP3 Mac1 [1] is 7.1 µM. In addition, the 1-BDC at SARS-CoV-2 NSP3 Mac1 [2] (setting [4]) came out at 0.12; on SARS-CoV-2 NSP3 Mac1 [2] (setting [7]) it was 0.14. At SARS-CoV-2 NSP3 Mac1 [2], the “1-BDC (PanDDA)” value amounted to 0.12. Moreover, the “PanDDA hit?” value on SARS-CoV-2 NSP3 Mac1 [2] (setting [8]) and at SARS-CoV-2 NSP3 Mac1 [2] (setting [5]) was “TRUE” in each case. In addition, the “Modeled?” value on SARS-CoV-2 NSP3 Mac1 [2] (setting [6]) is “TRUE”. Besides, the Refined occupancy on SARS-CoV-2 NSP3 Mac1 [2] came to 24. Moreover, the “HIT*” value on SARS-CoV-2 NSP3 Mac1 [2] is listed as “Y”.

On to `O=C(Nc1ccc(C(=O)NC2c3cccc(O)c3CC2C(=O)O)cn1)NC1CC1` (centres unmarked) [Z8539_0054], for which, on SARS-CoV-2 NSP3 Mac1 [1] (HTRF), the IC50 was 16 µM. For the same molecule, on SARS-CoV-2 NSP3 Mac1 [1], the Ki was 13.9 µM. Also, the “HIT*” value on SARS-CoV-2 NSP3 Mac1 [2] was “Y”.
